Test results published in patent publication US20090048243A1, “THERAPEUTIC AGENT FOR ATTENTION-DEFICIT HYPERACTIVITY DISORDER” (MITSUBISHI PHARMA CORPORATION, priority 2005, published 2009).
Structures can show the parent of a compound that is named as a salt. Where two headings read alike, the source gives them in different places.

Assays:
[1] = target: T1, 5-HT2A receptor (Rattus norvegicus, UniProt P14842); test: Specific 5-HT2A receptor binding test (tritiated ketanserin, cerebral cortex crude synaptosome fraction); settings: Wistar rat cerebral cortex synaptosome; tritiated ketanserin 0.2 nmol/L; 37° C., 20 minutes
T1 construct: A crude synaptosome fraction was separated from the cerebral cortex of Wistar rats; from tissue; host or cells: Wistar rat cerebral cortex, crude synaptosome fraction
Method: A specific 5-HT2A receptor binding test was performed in accordance with a publicly known method (Molecular Pharmacology, Vol.21, p.301, 1981).
A crude synaptosome fraction was separated from the cerebral cortex of Wistar rats at 6 to 12 weeks of age (SEAC Yoshitomi), suspended in 50 mmol/L tris-HCl buffer solution (pH 7.7) (Nacalai Tesque, Inc.), and used in the experiments. Next, each test compound at several different concentrations and tritiated ketanserin (final concentration 0.2 nmol/L) (Japan Radioisotope) were added to the synaptosome suspension, and they were reacted at 37° C. for 20 minutes. After the reaction, the reaction liquor was suction-filtered through a Whatman GF/B filter (NeuroScience, Inc.), and the filter was washed with 50 mmol/L tris-HCl buffer solution (pH 7.7), after which radioactivity remaining in the filter was measured using a liquid scintillation counter (Aloka Co., Ltd.). Non-specific binding was determined in the presence of 10^−5 mmol/L mianserin (Sigma Ltd.). 50% inhibitory concentrations were graphically calculated, and inhibition constants (Ki values) were determined.

[2] = system: norepinephrine uptake into mouse cerebral synaptosome; test: Norepinephrine uptake inhibitory action in crude synaptosome fraction; format: biochemical; settings: male ddy mouse hyppocampus synaptosome; tritiated norepinephrine; 37° C., 10 minutes; read-out: 50% inhibitory concentration (IC50) for norepinephrine uptake into mouse cerebral synaptosome
Method: Using a publicly known method (Journal of Pharmacology and Experimental Therapeutics, Vol.165, p.78, 1969) with partial modification, norepinephrine uptake inhibitory action was measured.
A crude synaptosome fraction was separated from the hyppocampus of a male ddy mouse, suspended in Krebs-Henseleit buffer solution (pH 7.4), and used in the experiments. Next, each test compound at several different concentrations was added to the synaptosome suspension and pre-incubated for 5 minutes, after which tritiated norepinephrine (Japan Radioisotope) was added to the reaction liquor, and they were reacted at 37° C. for 10 minutes. After the reaction, the reaction liquor was suction-filtered through a Whatman GF/B filter (NeuroScience, Inc.), and the filter was washed with Krebs-Henseleit buffer solution (pH 7.4), after which radioactivity remaining in the filter was measured using a liquid scintillation counter (Packard company, 3380 model). Norepinephrine concentration dependent uptake was obtained by subtracting the uptake at 0° C. from the uptake at 37° C. 50% inhibitory concentrations were graphically calculated, and inhibition constants (Ki values) were determined.

[3] = system: normal rats; test: Effect on motor activity in normal rats; format: in vivo, rat; settings: oral (FIG. 1-B)
[4] = system: rats with juvenile dopamine neulolysis due to 6-OH-DA treatment; test: Suppressive effect on increased motor activity in rats with juvenile dopamine neulolysis due to 6-OH-DA treatment; format: in vivo, rat; settings: for ED50: Rattus norvegicus, read-out: ED50 for the suppression of increased motor activity due to the 6-OH-DA treatment as 100%; for Effect on increased motor activity due to the 6-OH-DA treatment: compound A 1, 3 or 10 mg/kg, Atomoxetine 1, 3, 10 or 30 mg/kg, vs 0.5% HPMC control
Method: Suppressive effect on increased motor activity in rats with juvenile dopamine neulolysis due to 6-OH-DA treatment Male SD rats (Charles River Japan) were pre-treated with desipramine (Sigma Ltd.) in accordance with the method of Zhang et al. (Neuropsychopharmacology 2001 November;25(5):624-32) on day 5 after birth, after which 6-hydroxydopamine (hereinafter referred to as 6-OH-DA) (Sigma Ltd.) was administered to the cerebral ventricle on one side. During 12 to 18 days after birth, acclimation to a motor activity measurement apparatus (Toyo Sangyo) was performed three times; on day 19 after birth, motor activity was measured and the animals were grouped. […] For control, 0.5% HPMC (hydroxypropylmethylcellulose) was orally administered.

T1 sequence (P14842 whole entry): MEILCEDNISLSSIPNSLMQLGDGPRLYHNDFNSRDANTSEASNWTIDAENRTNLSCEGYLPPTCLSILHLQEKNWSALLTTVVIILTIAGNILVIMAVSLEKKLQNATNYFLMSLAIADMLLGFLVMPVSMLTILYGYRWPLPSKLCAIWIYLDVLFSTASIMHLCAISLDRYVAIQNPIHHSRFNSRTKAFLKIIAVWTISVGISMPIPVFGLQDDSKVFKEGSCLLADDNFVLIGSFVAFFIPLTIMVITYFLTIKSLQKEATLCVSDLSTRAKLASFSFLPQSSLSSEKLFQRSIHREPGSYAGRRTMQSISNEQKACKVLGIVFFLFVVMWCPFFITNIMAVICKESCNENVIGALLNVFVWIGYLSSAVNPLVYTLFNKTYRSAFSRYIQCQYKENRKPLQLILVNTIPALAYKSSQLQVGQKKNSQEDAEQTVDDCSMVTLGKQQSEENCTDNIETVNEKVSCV

| SMILES | Ki [1] [nM] | IC50 [2] [nM] | Suppression of motor activity in normal rats [3] | ED50 ([4]; oral, motor activity during 30 minutes following 1 hour after administration, linear regression) [mg/kg] | Dose from which a significant difference in suppression of increased motor activity was observed ([4]; oral, P<0.01 versus control (Dunnett method)) [mg/kg] | Effect on increased motor activity due to the 6-OH-DA treatment ([4]; oral) | ED50 ([4]; po) [mg/kg] |
| --- | --- | --- | --- | --- | --- | --- | --- |
| c1csc(Cc2ccccc2OC[C@H]2CNCCO2)c1 [B, R-2-[[o-(2-thenyl)phenoxy]methyl]morpholine maleic acid salt] | 1000 | 33 | – | – | – | – | – |
| c1csc(Cc2ccccc2OC[C@@H]2CNCCO2)c1 [compound A, S-2-[[o-(2-thenyl)phenoxy]methyl]morpholine maleic acid salt] | 26 | 2.6 | no significant suppression of motor activity was observed | 1.7 | ≥ 3 | dose-dependently inhibited | – |
| CNCCC(Oc1ccccc1C)c1ccccc1.Cl (single isomer, unassigned; (-)) [Atomoxetine, (−)-N-methyl-3-((2-methylphenyl)oxy)-3-phenyl-1-aminopropane hydrochloride, reference compound] | – | – | – | – | – | dose-dependently suppressed, but no significant suppression was observed | 24 |
| c1csc(Cc2ccccc2OCC2CNCCO2)c1 (racemic) [teniloxazine, (±)-2-[[o-(2-thenyl)phenoxy]methyl]morpholine maleic acid salt, reference compound] | 49 | 12 | – | – | – | – | – |
